Results as given in ChEMBL document CHEMBL1134764, “Inhibition of RANTES/CCR1-mediated chemotaxis by cosalane and related compounds” (Bioorg Med Chem Lett, 2001).

Molecular target: T1, C-C chemokine receptor type 1 (Homo sapiens, UniProt P32246)
T1 sequence (P32246 whole entry): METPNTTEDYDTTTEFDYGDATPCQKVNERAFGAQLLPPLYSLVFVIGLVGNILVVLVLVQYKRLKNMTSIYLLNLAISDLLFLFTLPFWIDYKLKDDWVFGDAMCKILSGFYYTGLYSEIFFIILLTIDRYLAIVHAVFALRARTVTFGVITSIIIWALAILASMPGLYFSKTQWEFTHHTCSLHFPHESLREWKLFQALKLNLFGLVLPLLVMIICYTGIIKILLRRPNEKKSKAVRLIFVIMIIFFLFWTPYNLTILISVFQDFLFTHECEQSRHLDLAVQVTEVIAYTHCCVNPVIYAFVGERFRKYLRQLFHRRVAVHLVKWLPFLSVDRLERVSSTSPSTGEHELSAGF
Test: Compound was evaluated for the inhibition of RANTES-induced migration of human embryonic kidney (CCR1/HEK) cell transfectants; NA: not active; call rule not given here
Format: functional

SMILES | IC50
CC(C)CCCC(C)[C@H]1CC[C@H]2[C@@H]3CCC4C[C@@H](CCC=C(c5cc(Cl)c(OCc6ccc(C(=O)[O-])cc6)c(C(=O)[O-])c5)c5cc(Cl)c(OCc6ccc(C(=O)[O-])cc6)c(C(=O)[O-])c5)CC[C@]4(C)[C@H]3CC[C@]12C.[Na+].[Na+].[Na+].[Na+] (stereo partly specified) | Not Active

System: not listed separately
Test: Compound was evaluated for the inhibition of RANTES-induced migration of human monocytes
Format: functional

SMILES | IC50
CC(C)CCCC(C)[C@H]1CC[C@H]2[C@@H]3CCC4C[C@@H](CCC=C(c5cc(Cl)c(OCc6cccc(B(O)O)c6)c(C(=O)O)c5)c5cc(Cl)c(OCc6cccc(B(O)O)c6)c(C(=O)O)c5)CC[C@]4(C)[C@H]3CC[C@]12C (stereo partly specified) | 2200 nM
CC(C)CCCC(C)[C@H]1CC[C@H]2[C@@H]3CCC4C[C@@H](CCC=C(c5cc(Cl)c(OCc6ccc(-c7cccc(C(=O)O)c7)cc6)c(C(=O)O)c5)c5cc(Cl)c(OCc6ccc(-c7cccc(C(=O)O)c7)cc6)c(C(=O)O)c5)CC[C@]4(C)[C@H]3CC[C@]12C (stereo partly specified) | 3000 nM
CSCC[C@H](NC(=O)c1cc(C(=CCC[C@H]2CC[C@@]3(C)C(CC[C@H]4[C@@H]5CC[C@H](C(C)CCCC(C)C)[C@@]5(C)CC[C@@H]43)C2)c2cc(Cl)c(O)c(C(=O)N[C@@H](CCSC)C(=O)O)c2)cc(Cl)c1O)C(=O)O (stereo partly specified) | 820 nM
CC(C)CCCC(C)[C@H]1CC[C@H]2[C@@H]3CCC4C[C@@H](CCC=C(c5cc(Cl)c(OCc6cccc(C(=O)O)c6)c(C(=O)O)c5)c5cc(Cl)c(OCc6cccc(C(=O)O)c6)c(C(=O)O)c5)CC[C@]4(C)[C@H]3CC[C@]12C (stereo partly specified) | 10000 nM
CC(C)CCCC(C)[C@H]1CC[C@H]2[C@@H]3CCC4C[C@@H](CCC=C(c5cc(Cl)c(OCc6ccccc6C(=O)O)c(C(=O)O)c5)c5cc(Cl)c(OCc6ccccc6C(=O)O)c(C(=O)O)c5)CC[C@]4(C)[C@H]3CC[C@]12C (stereo partly specified) | 3900 nM
CC(C)CCCC(C)[C@H]1CC[C@H]2[C@@H]3CCC4C[C@@H](CCC=C(c5cc(Cl)c(O)c(C(=O)O)c5)c5cc(Cl)c(O)c(C(=O)O)c5)CC[C@]4(C)[C@H]3CC[C@]12C (stereo partly specified) | 760 nM
CC(C)CCCC(C)[C@H]1CC[C@H]2[C@@H]3CCC4C[C@@H](CCC=C(c5cc(Cl)c(OCc6cccc([N+](=O)[O-])c6)c(C(=O)O)c5)c5cc(Cl)c(OCc6cccc([N+](=O)[O-])c6)c(C(=O)O)c5)CC[C@]4(C)[C@H]3CC[C@]12C (stereo partly specified) | 3500 nM

System: not listed separately
Test: Compound was evaluated for the inhibition of RANTES-induced migration of human monocytes; NA: not active
Format: functional

SMILES | IC50
CC(C)CCCC(C)[C@H]1CC[C@H]2[C@@H]3CCC4C[C@@H](CCC=C(c5cc(Cl)c(O)c(C(=O)N[C@@H](CC(=O)O)C(=O)O)c5)c5cc(Cl)c(O)c(C(=O)N[C@@H](CC(=O)O)C(=O)O)c5)CC[C@]4(C)[C@H]3CC[C@]12C (stereo partly specified) | Not Active
COc1c(COc2c(Cl)cc(C(=CCC[C@H]3CC[C@@]4(C)C(CC[C@H]5[C@@H]6CC[C@H](C(C)CCCC(C)C)[C@@]6(C)CC[C@@H]54)C3)c3cc(Cl)c(OCc4cccc(C(=O)O)c4OC)c(C(=O)[O-])c3)cc2C(=O)[O-])cccc1C(=O)O.[Na+].[Na+] (stereo partly specified) | Not Active
CC(C)CCCC(C)[C@H]1CC[C@H]2[C@@H]3CCC4C[C@@H](CCC=C(c5cc(Cl)c(OCc6ccccc6B([O-])O)c(C(=O)[O-])c5)c5cc(Cl)c(OCc6ccccc6B([O-])O)c(C(=O)[O-])c5)CC[C@]4(C)[C@H]3CC[C@]12C.[Na+].[Na+].[Na+].[Na+] (stereo partly specified) | Not Active
CC(C)CCCC(C)[C@H]1CC[C@H]2[C@@H]3CCC4C[C@@H](CCC=C(c5cc(Cl)c(O)c(C(=O)N[C@@H](Cc6ccccc6)C(=O)O)c5)c5cc(Cl)c(O)c(C(=O)N[C@@H](Cc6ccccc6)C(=O)O)c5)CC[C@]4(C)[C@H]3CC[C@]12C (stereo partly specified) | Not Active
CC(C)CCCC(C)[C@H]1CC[C@H]2[C@@H]3CCC4C[C@@H](CCC=C(c5cc(Cl)c(OCc6ccc(C(=O)O)cc6)c(C(=O)[O-])c5)c5cc(Cl)c(OCc6ccc(C(=O)O)cc6)c(C(=O)[O-])c5)CC[C@]4(C)[C@H]3CC[C@]12C.[Na+].[Na+] (stereo partly specified) | Not Active
CC(C)CCCC(C)[C@H]1CC[C@H]2[C@@H]3CCC4C[C@@H](CCC=C(c5cc(Cl)c(OCc6ccc(B([O-])O)cc6)c(C(=O)[O-])c5)c5cc(Cl)c(OCc6ccc(B([O-])O)cc6)c(C(=O)[O-])c5)CC[C@]4(C)[C@H]3CC[C@]12C.[Na+].[Na+].[Na+].[Na+] (stereo partly specified) | Not Active
CC(C)CCCC(C)[C@H]1CC[C@H]2[C@@H]3CCC4C[C@@H](CCC=C(c5cc(Cl)c(OCc6ccc(C(=O)[O-])cc6)c(C(=O)[O-])c5)c5cc(Cl)c(OCc6ccc(C(=O)[O-])cc6)c(C(=O)[O-])c5)CC[C@]4(C)[C@H]3CC[C@]12C.[Na+].[Na+].[Na+].[Na+] (stereo partly specified) | Not Active
CC(C)CCCC(C)[C@H]1CC[C@H]2[C@@H]3CCC4C[C@@H](CCC=C(c5cc(Cl)c(O)c(C(=O)N[C@@H](CCC(=O)O)C(=O)O)c5)c5cc(Cl)c(O)c(C(=O)N[C@@H](CCC(=O)O)C(=O)O)c5)CC[C@]4(C)[C@H]3CC[C@]12C (stereo partly specified) | Not Active
